Source: PubChem BioAssay AID248 (DTP/NCI, 2004)
Several values for one entry are separate records, joined by “and”; a condition that tells them apart may be missing. Equal values may be shown once. Toxic doses and inconclusive results are not listed. Cut-off read from the data, not from the text of the source: active = T/C of 150% or more; inactive = T/C below 125%.

System: L1210 leukemia ip in BDF1 mice, survival T/C
Test: NCI In Vivo Anticancer Drug Screen. Data for tumor model L1210 Leukemia (intraperitoneal) in B6D2F1 (BDF1) mice
Details: endpoint: mean survival time, higher = longer survival
How it was run: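 Mice bearing the transplanted tumor received compound or vehicle. Survival of the treated group was divided by that of the vehicle-treated control group to give the ratio.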

[1] = dose: 100.0 mg/kg/injection, schedule: Q01DX009 (ip), vehicle: saline
[2] = dose: 200.0 mg/kg/injection, schedule: Q01DX009 (ip), vehicle: saline
[3] = dose: 400.0 mg/kg/injection, schedule: Q01DX009 (ip), vehicle: saline
[4] = dose: 100.0 mg/kg/injection, schedule: Q01DX009 (ip), vehicle: Klucel (hydroxypropylcellulose) (HPC)
[5] = dose: 200.0 mg/kg/injection, schedule: Q01DX009 (ip), vehicle: Klucel (hydroxypropylcellulose) (HPC)
[6] = dose: 400.0 mg/kg/injection, schedule: Q01DX009 (ip), vehicle: Klucel (hydroxypropylcellulose) (HPC)
[7] = dose: 50.0 mg/kg/injection, schedule: Q01DX001 (ip), vehicle: saline
[8] = dose: 100.0 mg/kg/injection, schedule: Q01DX001 (ip), vehicle: saline
[9] = dose: 200.0 mg/kg/injection, schedule: Q01DX001 (ip), vehicle: saline
[10] = dose: 400.0 mg/kg/injection, schedule: Q01DX001 (ip), vehicle: saline
[11] = dose: 100.0 mg/kg/injection, schedule: Q01DX001 (ip), vehicle: Klucel (hydroxypropylcellulose) (HPC)
[12] = dose: 200.0 mg/kg/injection, schedule: Q01DX001 (ip), vehicle: Klucel (hydroxypropylcellulose) (HPC)

Measured: T/C

COc1ccc(CN(C(C)=O)c2cc(C)c([N+](=O)[O-])cc2OC)cc1OC
inactive: [1] 90 % of control | dose: 100.0 mg/kg/injection, schedule: Q04DX003 (ip), vehicle: saline 93 % of control | [2] 94 % of control | dose: 200.0 mg/kg/injection, schedule: Q04DX003 (ip), vehicle: saline 100 % of control | [3] 96 % of control | dose: 400.0 mg/kg/injection, schedule: Q04DX003 (ip), vehicle: saline 98 % of control

O=S1(=O)C=C(c2ccccc2)C(c2ccccc2)=C1
inactive: dose: 3.12 mg/kg/injection, schedule: Q01DX009 (ip), vehicle: saline with Tween-80 98 % of control | dose: 6.25 mg/kg/injection, schedule: Q01DX009 (ip), vehicle: saline with Tween-80 106 % of control | dose: 12.5 mg/kg/injection, schedule: Q01DX009 (ip), vehicle: saline with Tween-80 101 % of control | dose: 25.0 mg/kg/injection, schedule: Q01DX009 (ip), vehicle: saline with Tween-80 101 % of control and 108 % of control | dose: 25.0 mg/kg/injection, schedule: Q04DX003 (ip), vehicle: Klucel (hydroxypropylcellulose) (HPC) 95 % of control | dose: 50.0 mg/kg/injection, schedule: Q01DX009 (ip), vehicle: saline with Tween-80 95 % of control | dose: 50.0 mg/kg/injection, schedule: Q04DX003 (ip), vehicle: Klucel (hydroxypropylcellulose) (HPC) 102 % of control | dose: 100.0 mg/kg/injection, schedule: Q04DX003 (ip), vehicle: Klucel (hydroxypropylcellulose) (HPC) 118 % of control and 91 % of control

O=C(O)/C=C/C(=O)Nc1ccc(Cl)cc1C(=O)c1ccccc1
inactive: [4] 101 % of control | [5] 98 % of control

Cc1cccc(NC(=O)CCCCCCCCC(=O)Nc2cccc(C)c2C)c1C
inactive: [4] 92 % of control | [5] 102 % of control | [6] 98 % of control

CCCCCCCCCCCCCCCCC1Cc2ccccc2C1
inactive: [7] 98 % of control | [8] 101 % of control | [9] 107 % of control | [10] 101 % of control

C=CCCC(=O)OC(C)(C)C
inactive: dose: 25.0 mg/kg/injection, schedule: Q01DX009 (ip), vehicle: water 96 % of control | dose: 50.0 mg/kg/injection, schedule: Q01DX009 (ip), vehicle: water 96 % of control | dose: 100.0 mg/kg/injection, schedule: Q01DX009 (ip), vehicle: water 98 % of control | dose: 200.0 mg/kg/injection, schedule: Q01DX009 (ip), vehicle: water 97 % of control

CCCCCCCCCCCCCC(CCC)CCC
inactive: [8] 94 % of control | [9] 96 % of control | [10] 94 % of control

Cc1cc(NC(=O)Nc2cc(Cl)ccc2C)no1
inactive: dose: 12.5 mg/kg/injection, schedule: Q01DX009 (ip), vehicle: Klucel (hydroxypropylcellulose) (HPC) 95 % of control | dose: 25.0 mg/kg/injection, schedule: Q01DX009 (ip), vehicle: Klucel (hydroxypropylcellulose) (HPC) 106 % of control | dose: 50.0 mg/kg/injection, schedule: Q01DX009 (ip), vehicle: Klucel (hydroxypropylcellulose) (HPC) 98 % of control

CCOC(=O)NC(CC)NC(=O)OCC
inactive: [8] 101 % of control | [9] 103 % of control | [10] 97 % of control

CN(C)C(=O)Nc1ccc2c(c1)OCO2
inactive: dose: 75.0 mg/kg/injection, schedule: Q01DX009 (ip), vehicle: Klucel (hydroxypropylcellulose) (HPC) 107 % of control | [11] 111 % of control | dose: 150.0 mg/kg/injection, schedule: Q01DX009 (ip), vehicle: Klucel (hydroxypropylcellulose) (HPC) 110 % of control | [12] 104 % of control | dose: 300.0 mg/kg/injection, schedule: Q01DX009 (ip), vehicle: Klucel (hydroxypropylcellulose) (HPC) 102 % of control

O=C(Nc1ccc(N=C(c2ccccc2)N2CCOCC2)cc1)c1ccc(C(=O)Nc2ccc(N=C(c3ccccc3)N3CCOCC3)cc2)cc1
inactive: dose: 62.0 mg/kg/injection, schedule: Q01DX Z (ip), vehicle: carboxymethylcellulose (CMC) 92 % of control | dose: 125.0 mg/kg/injection, schedule: Q01DX Z (ip), vehicle: carboxymethylcellulose (CMC) 86 % of control | dose: 250.0 mg/kg/injection, schedule: Q01DX Z (ip), vehicle: carboxymethylcellulose (CMC) 91 % of control

CC(C)NNC(=O)C(N)CO (stereo unspecified)
inactive: dose: 25.0 mg/kg/injection, schedule: Q01DX009 (ip), vehicle: saline 91 % of control | dose: 50.0 mg/kg/injection, schedule: Q01DX009 (ip), vehicle: saline 97 % of control | [1] 105 % of control | [2] 97 % of control | [3] 107 % of control

C[C@H]1/C(=C/C(=O)OCCN(C)C)CC[C@H]2[C@H]1C(=O)C[C@H]1C(C)(C)[C@@H](O)CC[C@]21C
inactive: dose: 5.0 mg/kg/injection, schedule: Q01DX001 (ip), vehicle: other 106 % of control | dose: 10.0 mg/kg/injection, schedule: Q01DX001 (ip), vehicle: other 97 % of control | dose: 20.0 mg/kg/injection, schedule: Q01DX001 (ip), vehicle: other 97 % of control

CC/C(C)=N\NC(=O)CC(=O)N/N=C(/C)CC
inactive: [4] 95 % of control | [5] 101 % of control | [6] 100 % of control

CCc1nnnn1-c1ccc(Br)cc1
inactive: [11] 93 % of control | [12] 102 % of control | dose: 400.0 mg/kg/injection, schedule: Q01DX001 (ip), vehicle: Klucel (hydroxypropylcellulose) (HPC) 116 % of control

CC(C)=C(c1ccc(C(C)(C)C)cc1)c1ccc(C(C)(C)C)cc1
inactive: dose: 100.0 mg/kg/injection, schedule: Q01DX009 (ip), vehicle: saline with Tween-80 94 % of control | dose: 200.0 mg/kg/injection, schedule: Q01DX009 (ip), vehicle: saline with Tween-80 95 % of control

O=c1[nH]c(=S)c2c3c(sc2[nH]1)CCCC3
inactive: dose: 100.0 mg/kg/injection, schedule: Q04DX003 (ip), vehicle: saline sonified 95 % of control | dose: 200.0 mg/kg/injection, schedule: Q04DX003 (ip), vehicle: saline sonified 97 % of control | dose: 400.0 mg/kg/injection, schedule: Q04DX003 (ip), vehicle: saline sonified 93 % of control

Oc1ccc(CCCc2ccc3c(c2)OCO3)cc1
inactive: dose: 100.0 mg/kg/injection, schedule: Q04DX002 (ip), vehicle: saline with Tween-80 104 % of control | dose: 200.0 mg/kg/injection, schedule: Q04DX002 (ip), vehicle: saline with Tween-80 104 % of control

C[N+](C)(C)Cc1c(C(O)(c2ccccc2)c2ccccc2)ccc2ccccc12
inactive: dose: 50.0 mg/kg/injection, schedule: Q01DX001 (ip), vehicle: carboxymethylcellulose (CMC) 94 % of control | dose: 100.0 mg/kg/injection, schedule: Q01DX001 (ip), vehicle: carboxymethylcellulose (CMC) 96 % of control

CCOP(=O)(OCC)C1=C(CC)CC1
inactive: dose: 9.5 mg/kg/injection, schedule: Q01DX001 (ip), vehicle: other 109 % of control | dose: 19.0 mg/kg/injection, schedule: Q01DX001 (ip), vehicle: other 111 % of control | dose: 38.0 mg/kg/injection, schedule: Q01DX001 (ip), vehicle: other 106 % of control

O=C1CCC(=O)N1[N+](=O)[O-]
inactive: [7] 95 % of control and 89 % of control | [8] 97 % of control and 101 % of control | [9] 103 % of control and 107 % of control

Cc1cccc(NC(=O)C(Br)C(Br)c2ccccc2)c1C (stereo unspecified)
inactive: [4] 94 % of control | [5] 105 % of control | [6] 105 % of control
